This is an account of results in ChEMBL document CHEMBL1201862, “PubChem BioAssay data set” (2004).

Molecules are shown by their SMILES.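 In this assay, cells in 96-well plates receive the compound at five concentrations for 48 hours. Endpoints are linearly interpolated between the surrounding concentrations. GI50 = concentration required for 50% inhibition of growth.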 Active and inactive are the calls of the source. Rule as the data show it: active = GI50 up to about 1.1 µM and inactive = higher.

What all share (assay): growth of human tumour cells (NCI), 48 h
Experiment [1] relates to SNB-75.
The test system of experiment [2] is M14.
For experiment [3], the system named is MDA-MB-231.
Experiment [4] deals with CCRF-CEM.
In experiment [5] the test system is A549.
For experiment [6], the system named is UO-31.
Experiment [7] concerns 786-0.
Experiment [8] deals with Hs-578T.
Experiment [9] has as its system MCF7.
The subject of experiment [10] is OVCAR-3.
The subject of experiment [11] is SK-MEL-28.
Experiment [12] concerns KM12.
Experiment [13] deals with IGROV-1.
For experiment [14], the system named is HL-60.
Experiment [15] deals with ACHN.
Experiment [16] has as its system Malme-3M.
Experiment [17] concerns RPMI-8226.
For experiment [18], the system named is HCT-15.
Experiment [19] has as its system DU-145.
For experiment [20], the system named is NCI/ADR-RES.

In the case of `CN(CCc1ccccn1)C(=S)N/N=C/c1ccccn1`, the GI50 in experiment [1] is 7.5 µM (inactive); in experiment [2] it was < 0.0226 µM (active); in experiment [3], < 0.01 µM (active); in [4], < 0.01 µM (active); in [5], 0.285 µM (active); in [6], 0.139 µM (active). The GI50 was 0.0495 µM (active) in experiment [7]; 20 µM (inactive) in experiment [8]; < 0.01 µM (active) in [9]; < 0.01 µM (active) in experiment [10]; 0.442 µM (active) in [11]; 0.0719 µM (active) in experiment [12]. In addition, the GI50 in [13] was 0.0184 µM (active); in [14] it was < 0.01 µM (active); in experiment [15], 0.0366 µM (active); in experiment [16], 0.182 µM (active); in experiment [17] it was < 0.01 µM (active); in [18] it was 0.0148 µM. The GI50 is 0.298 µM (active) in experiment [19] and < 0.0201 µM (active) in [20].
For the compound `CC(=O)OC1C[C@@H](C)C2(C[C@H](O)c3ccoc3)C(=O)OC[C@]13C2CCC(O)C31CO1` (some centres not stated), the GI50 in experiment [1], in experiment [2], in [3], in experiment [4], in experiment [5] and in [6] was > 100 µM (inactive) in each case. Also, the GI50 in experiment [7], in [8], in [9], in experiment [10], in [11] and in [12] was > 100 µM (inactive) in each case. The GI50 is > 100 µM (inactive) in experiment [13]; > 10 µM (inactive) in [14]; > 100 µM (inactive) in experiment [15]; > 100 µM (inactive) in experiment [16]; > 100 µM (inactive) in experiment [17]; > 100 µM in experiment [18]. The GI50 in experiment [19] and in [20] was > 100 µM (inactive) in each case.
Turning to `CCN(CCCl)c1cc(CN(C)C)cc(NC(=O)C23CCC(C(=O)Nc4cc(CN(C)C)cc(N(CC)CCCl)c4)(CC2)CC3)c1`, the GI50 in [1] is 1.01 µM (active); in experiment [2], 2.97 µM (inactive); in experiment [3], 12.8 µM (inactive); in experiment [4], < 0.01 µM (active); in [5], 1.03 µM (active); in [6], 17.1 µM (inactive). The GI50 in [7] was 0.073 µM (active); in [8] it was 0.46 µM (active); in experiment [9] it was 0.0255 µM (active); in experiment [11], 1.75 µM (inactive); in experiment [12] it was 1.67 µM (inactive); in [13], 1.44 µM (inactive). For the same compound, the GI50 was 0.0157 µM (active) in [14]; 2.22 µM (inactive) in [15]; 1.71 µM (inactive) in experiment [16]; 1.35 µM (inactive) in [17]; 13.4 µM in experiment [18]; 0.804 µM (active) in experiment [19]. In experiment [20], the GI50 is 29.9 µM (inactive).
On to `CC1=C(N2CC2)C(=O)c2nc3n(c2C1=O)CCC3OC(=O)CCl` (configuration not stated), for which the GI50 in experiment [1] was 0.0221 µM (active); in experiment [2], 0.0361 µM (active); in experiment [3], 1.91 µM (inactive); in experiment [4], 0.181 µM (active); in experiment [5] it was 0.0593 µM (active); in experiment [6], 0.0483 µM (active). In addition, the GI50 was 0.052 µM (active) in experiment [7]; 0.0279 µM (active) in [8]; < 0.01 µM (active) in experiment [9]; 0.0771 µM (active) in experiment [10]; 0.0555 µM (active) in [11]; 0.0377 µM (active) in [12]. Besides, the GI50 in [13] was 0.19 µM (active); in experiment [14] it was 0.206 µM (active); in experiment [15] it was 0.047 µM (active); in [16] it was 0.0453 µM (active); in experiment [17], 0.0955 µM (active); in experiment [18] it was 0.0194 µM. The GI50 was 0.021 µM (active) in [19] and 0.0249 µM (active) in experiment [20].
`COc1ccc(OC)c(/N=C/c2cc(OC)c(OC)c(OC)c2)c1`: the GI50 in experiment [1] was > 100 µM (inactive); in experiment [2], > 100 µM (inactive); in [3], > 100 µM (inactive); in experiment [4], 22.9 µM (inactive); in experiment [5] it was > 100 µM (inactive); in experiment [6], > 100 µM (inactive). For the same compound, the GI50 in experiment [7] was > 95.7 µM (inactive); in [8], > 100 µM (inactive); in experiment [9], 62.4 µM (inactive); in experiment [11], > 89.1 µM (inactive); in experiment [12], > 80 µM (inactive); in experiment [13] it was > 82.8 µM (inactive). For the same compound, the GI50 in [14] was 48.9 µM (inactive); in [15], > 94.4 µM (inactive); in experiment [16], > 100 µM (inactive); in experiment [17], > 44.1 µM (inactive); in experiment [18] it was > 92.7 µM; in [19], > 100 µM (inactive). For the same compound, the GI50 in [20] was > 100 µM (inactive).
As for `Cc1ccc(S(=O)(=O)NC(=O)Nc2nnc(S(N)(=O)=O)s2)cc1`, the GI50 in experiment [1] was > 100 µM (inactive); in experiment [2] it was > 100 µM (inactive); in [3], > 100 µM (inactive); in experiment [4], < 0.01 µM (active); in experiment [5] it was > 100 µM (inactive); in experiment [6] it was > 100 µM (inactive). Also, the GI50 in [7], in experiment [8], in [9], in experiment [10], in experiment [12] and in experiment [14] was > 100 µM (inactive) throughout. Also, the GI50 in experiment [15] was > 100 µM (inactive); in [16], > 100 µM (inactive); in experiment [17], > 100 µM (inactive); in experiment [18], > 100 µM; in [19] it was > 100 µM (inactive); in experiment [20], > 100 µM (inactive).
Regarding `Cc1nc(-c2ccccc2)c(C)n2c1nc1ccccc12`, the GI50 in [1] is 26.7 µM (inactive); in [2], 20.3 µM (inactive); in experiment [3], 31.9 µM (inactive); in [4], 30.7 µM (inactive); in experiment [5], 34.2 µM (inactive); in experiment [6], 14.7 µM (inactive). In addition, the GI50 in experiment [7] is 29 µM (inactive); in [8], 40 µM (inactive); in experiment [9], 24 µM (inactive); in [10] it was 24.6 µM (inactive); in experiment [11] it was 39.4 µM (inactive); in [12], 36.8 µM (inactive). Moreover, the GI50 in experiment [13] was 30.4 µM (inactive); in experiment [14] it was 16.5 µM (inactive); in experiment [16], 31.4 µM (inactive); in [17] it was 14.2 µM (inactive); in experiment [18], 24.2 µM; in [19], 29.9 µM (inactive). In experiment [20], the GI50 is 23.4 µM (inactive).
As for `O=C(C/N=C(\CN(c1ccccc1)c1ccccc1)Oc1c(Cl)cc(Cl)cc1Cl)N1c2ccccc2Sc2ccccc21`, the GI50 was 22.3 µM (inactive) in experiment [1]; 30.5 µM (inactive) in [2]; > 100 µM (inactive) in experiment [3]; 41.8 µM (inactive) in experiment [4]; 54.5 µM (inactive) in experiment [5]; 55.3 µM (inactive) in [7]. The GI50 in experiment [8] is 50.9 µM (inactive); in [9], 32.3 µM (inactive); in experiment [10] it was 46.8 µM (inactive); in [11], > 100 µM (inactive); in experiment [12], 38.1 µM (inactive); in experiment [13] it was 28.2 µM (inactive). Also, the GI50 in experiment [14] was 47.4 µM (inactive); in [15], 39.9 µM (inactive); in experiment [16], 31 µM (inactive); in experiment [17], 62.2 µM (inactive); in experiment [18], 32.9 µM; in [19], > 100 µM (inactive). For the same compound, in experiment [20], the GI50 was 57.9 µM (inactive).
With `O=C1c2c(ccc3c2CCCC3)CC12Cc1ccc3c(c1C2=O)CCCC3`, the GI50 in [1], in experiment [2], in [3], in [4], in experiment [5] and in experiment [6] was > 100 µM (inactive) in each case. Moreover, the GI50 in experiment [7], in experiment [8], in experiment [9], in experiment [10], in experiment [11] and in experiment [13] was > 100 µM (inactive) in each case. Besides, the GI50 was > 100 µM (inactive) in experiment [14]; > 100 µM (inactive) in experiment [15]; 28.2 µM (inactive) in [16]; > 100 µM (inactive) in experiment [17]; > 100 µM in [18]; > 100 µM (inactive) in experiment [19]. Moreover, the GI50 in experiment [20] is > 100 µM (inactive).
On to `O=C1CSC2(CC(/C=C/c3ccccc3O)=NN2c2cccc(S(=O)(=O)O)c2)N1c1nc2ccccc2s1` (configuration not stated), for which the GI50 in [1] was 90.8 µM (inactive); in [2], 59.4 µM (inactive); in [3], 30.1 µM (inactive); in experiment [4] it was 14.6 µM (inactive); in experiment [5], 50.4 µM (inactive); in [6] it was 28.7 µM (inactive). In addition, the GI50 in [7] was 31.6 µM (inactive); in [8] it was 47.3 µM (inactive); in [9] it was 34.3 µM (inactive); in [11] it was 56.5 µM (inactive); in experiment [12] it was 30.6 µM (inactive); in [13] it was 23.3 µM (inactive). For the same compound, the GI50 in [14] was 15.7 µM (inactive); in experiment [15] it was 32.1 µM (inactive); in experiment [16], 41.9 µM (inactive); in [17], 16 µM (inactive); in experiment [18], 20 µM; in [19] it was 30.5 µM (inactive). Moreover, the GI50 in [20] was 26.7 µM (inactive).
